# Laboratory results reported in patent US20140121216A1, “INDOLEAMINE DERIVATIVES FOR THE TREATMENT OF CENTRAL NERVOUS SYSTEM DISEASES” (Adamed Sp. z o.o., priority 2011, published 2014).
# What was measured:
# [1] = target: T1, 5-HT2A (h), human recombinant (HEK-293 cells) (Homo sapiens, UniProt P28223); test: Cellular functional assay 5-HT2A (h) agonism; assay type: cell-based; conditions: compound 1×10^−6 M; control 10 μM serotonin
# T1 construct: expressed in transfected cells; host or cells: HEK-293 cells
# Protocol: The results are expressed as a percent of control specific agonist response ((measured specific response/control specific agonist response)×100) obtained in the presence of tested compound.
# The EC50 values (concentration producing a half-maximal specific response) and IC50 values (concentration causing a half-maximal inhibition of the control specific agonist response) were determined by non-linear regression analysis of the concentration-response curves generated with mean replicate values using Hill equation curve fitting (Y=D+[(A−D)/(1+(C/C50)nH)], where Y=specific response, D=minimum specific response, A=maximum specific response, C=compound concentration, and C50=EC50 or IC50, and nH=slope factor).
# For the antagonists, the apparent dissociation constants (Kb) were calculated using the modified Cheng Prusoff equation (Kb=IC50/(1+(A/EC50A)), where A=concentration of reference agonist in the assay, and EC50A=EC50 value of the reference agonist).
# [2] = target: T2, human recombinant D3 receptors (Homo sapiens, UniProt P35462); test: Binding assay, dopaminergic D3 receptor ([3H]methylspiperone); conditions: read-out: Inhibition constant Ki D3
# T2 construct: purchased PerkinElmer
# Protocol: (§1) Moreover, ability of the compounds of the invention to block potassium channel hERG was tested.
# (§2) The specific ligand binding to the receptors is defined as the difference between the total binding and the non-specific binding determined in the presence of an excess of unlabelled ligand.
# (§3) The inhibition constants (Ki) were calculated using the Cheng Prusoff equation (Ki=IC50/(1+(L/KD)), where L=concentration of radioligand in the assay, and KD=affinity of the radioligand for the receptor). A Scatchard plot is used to determine the Kd. The IC50 values (concentration causing a half-maximal inhibition of control specific binding) and Hill coefficients (nH) were determined by non-linear regression analysis of the competition curves generated with mean replicate values using Hill equation curve fitting (Y=D+[(A−D)/(1+(C/C50)^nH)], where Y=specific binding, D=minimum specific binding, A=maximum specific binding, C=compound concentration, C50=IC50, and nH=slope factor).
# [3] = target: T3, D2 receptor, human recombinant (GeneBLAzer D2-Gqo5 CHO-K1 DA) (Homo sapiens, UniProt P14416); test: Binding assay, dopaminergic D2 receptor ([3H]methylspiperone); conditions: read-out: Inhibition constant Ki D2
# T3 construct: purchased Invitrogen; host or cells: CHO-K1 (GeneBLAzer D2-Gqo5 CHO-K1 DA)
# Protocol: as §1, §2, §3
# [4] = target: T4, M3 muscarinic receptors, human recombinant (CHO cells) (Homo sapiens, UniProt P20309); test: Binding assay, M3 muscarinic receptor ([3H]4-DAMP); conditions: compound 1×10^−6 M
# T4 construct: expressed in transfected cells; host or cells: CHO cells
# Protocol: as §1, §2
# as §3, with “factor). This analysis was performed using a software developed at Cerep (Hill software) and validated by comparison with data generated by the commercial software SigmaPlot® 4.0 for Windows® (©1997 by SPSS Inc.).” for “factor).”
# Experimental conditions for tests are given in Table 10, and results of tests for representative compounds are given in Table 11.
# [5] = tested on: α1 adrenergic receptors (rat cerebral cortex); test: Binding assay, α1 adrenergic receptor ([3H]prazosin); conditions: for α1 [%] affinity test result: compound 1×10^−6 M; for Ki: read-out: Inhibition constant Ki α1
# Protocol: as §2
# as §3, with “factor). This analysis was performed using a software developed at Cerep (Hill software) and validated by comparison with data generated by the commercial software SigmaPlot® 4.0 for Windows® (©1997 by SPSS Inc.).” for “factor).”
# Experimental conditions for tests are given in Table 7, and results of tests for representative compounds are given in Tables 8a and 8b (α1 receptors) and in Tables 9a and 9b (α2C receptors).
# [6] = target: T5, hERG potassium channels (KCNH2 gene, expressed in CHO cells) (Homo sapiens, UniProt Q12809); test: Ability to block hERG potassium channel, electrophysiology (IonWorks Quattro); assay type: cell-based; conditions: for hERG [%] (% block of hERG current): compound 1×10^−5 M; for Ki: read-out: Inhibition constants Ki for hERG potassium channels (column head H1 [nM])
# T5 construct: expressed in transfected cells; host or cells: CHO cells
# Protocol: Ability to block hERG potassium channels was determined using the electrophysiological method and cloned hERG potassium channels (KCNH2 gene, expressed in CHO cells) as biological material. The effects were evaluated using IonWorks™ Quattro system (MDS-AT).
# hERG current was elicited using a pulse pattern with fixed amplitudes (conditioning prepulse: −80 mV for 25 ms; test pulse: +40 mV for 80 ms) from a holding potential of 0 mV. hERG current was measured as a difference between the peak current at 1 ms after the test step to +40 mV and the steady-state current at the end of the step to +40 mV.
# Data acquisition and analyses were performed using the IonWorks Quattro™ system operation software (version 2.0.2; Molecular Devices Corporation, Union City, Calif.). Data were corrected for leak current.
# The hERG block was calculated as: % Block=(1−ITA/IControl)×100%, where IControl and ITA were the currents elicited by the test pulse in control and in the presence of a test compound, respectively.
# Male CD-1 mice = test: Dizocilpine-induced locomotor hyperactivity in mice; assay type: in vivo
# Protocol: Potential antipsychotic activity was tested for the representative compound 24 in mouse model of psychosis, involving the induction of locomotor hyperactivity by administering psychotomimetic substance-dizocilpine. The ability of a test compound to remove this effect is a measure of potential antipsychotic activity.
# Male CD-1 mice were group-housed for 2-3 day period in polycarbonate Makrolon type 3 cages (dimensions 26.5×15×42 cm) in an environmentally controlled, experimental room (ambient temperature 22-20° C.; relative humidity 50-60%; 12:12 light:dark cycle, lights on at 8:00), in groups of 15. Standard laboratory food (Ssniff M-Z) and filtered water were freely available. On the day before experiments the equipment produced “white noise” was turned on for 30 minutes and mice were weighted exact to 1 g. Animals were assigned randomly to treatment groups. All the experiments were performed by two observers unaware of the treatment applied between 9:00 and 14:00 on separate groups of animals. […]
# The locomotor activity was recorded with an Opto M3 multi-channel activity monitor (MultiDevice Software v.1.3, Columbus Instruments). The mice were individually placed in plastic cages (22×12×13 cm) for 30 minutes habituation period, and then the crossings of each channel (ambulation) were counted during 1 h with data recording every 5 minutes. […]
# T3 sequence (P14416 whole entry): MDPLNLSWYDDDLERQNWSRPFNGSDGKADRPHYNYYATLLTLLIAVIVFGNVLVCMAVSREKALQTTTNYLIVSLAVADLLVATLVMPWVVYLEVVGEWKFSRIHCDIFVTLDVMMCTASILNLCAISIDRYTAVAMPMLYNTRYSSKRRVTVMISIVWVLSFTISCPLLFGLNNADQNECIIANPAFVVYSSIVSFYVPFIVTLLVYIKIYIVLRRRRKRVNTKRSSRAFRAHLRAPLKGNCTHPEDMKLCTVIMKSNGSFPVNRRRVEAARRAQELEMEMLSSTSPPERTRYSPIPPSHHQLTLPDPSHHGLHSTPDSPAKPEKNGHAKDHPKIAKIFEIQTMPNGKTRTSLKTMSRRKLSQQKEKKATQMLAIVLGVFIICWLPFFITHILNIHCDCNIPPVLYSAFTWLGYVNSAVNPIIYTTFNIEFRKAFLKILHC
# T4 sequence (P20309 whole entry): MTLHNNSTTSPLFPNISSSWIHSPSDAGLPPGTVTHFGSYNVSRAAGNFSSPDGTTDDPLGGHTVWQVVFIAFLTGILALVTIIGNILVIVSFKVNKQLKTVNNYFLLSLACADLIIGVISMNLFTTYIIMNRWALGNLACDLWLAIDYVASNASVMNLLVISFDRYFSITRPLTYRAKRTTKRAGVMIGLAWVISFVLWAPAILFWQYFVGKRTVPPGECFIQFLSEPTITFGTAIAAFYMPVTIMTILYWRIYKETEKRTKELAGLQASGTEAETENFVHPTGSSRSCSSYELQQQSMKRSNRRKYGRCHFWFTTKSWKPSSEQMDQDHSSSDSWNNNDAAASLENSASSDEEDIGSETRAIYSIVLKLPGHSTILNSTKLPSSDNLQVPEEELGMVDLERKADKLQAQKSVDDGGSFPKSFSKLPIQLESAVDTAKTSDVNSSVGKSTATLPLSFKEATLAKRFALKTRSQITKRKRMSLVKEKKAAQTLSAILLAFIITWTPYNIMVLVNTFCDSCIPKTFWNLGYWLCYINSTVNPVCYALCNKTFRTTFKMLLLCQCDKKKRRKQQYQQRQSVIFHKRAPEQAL
# T5 sequence (Q12809 whole entry): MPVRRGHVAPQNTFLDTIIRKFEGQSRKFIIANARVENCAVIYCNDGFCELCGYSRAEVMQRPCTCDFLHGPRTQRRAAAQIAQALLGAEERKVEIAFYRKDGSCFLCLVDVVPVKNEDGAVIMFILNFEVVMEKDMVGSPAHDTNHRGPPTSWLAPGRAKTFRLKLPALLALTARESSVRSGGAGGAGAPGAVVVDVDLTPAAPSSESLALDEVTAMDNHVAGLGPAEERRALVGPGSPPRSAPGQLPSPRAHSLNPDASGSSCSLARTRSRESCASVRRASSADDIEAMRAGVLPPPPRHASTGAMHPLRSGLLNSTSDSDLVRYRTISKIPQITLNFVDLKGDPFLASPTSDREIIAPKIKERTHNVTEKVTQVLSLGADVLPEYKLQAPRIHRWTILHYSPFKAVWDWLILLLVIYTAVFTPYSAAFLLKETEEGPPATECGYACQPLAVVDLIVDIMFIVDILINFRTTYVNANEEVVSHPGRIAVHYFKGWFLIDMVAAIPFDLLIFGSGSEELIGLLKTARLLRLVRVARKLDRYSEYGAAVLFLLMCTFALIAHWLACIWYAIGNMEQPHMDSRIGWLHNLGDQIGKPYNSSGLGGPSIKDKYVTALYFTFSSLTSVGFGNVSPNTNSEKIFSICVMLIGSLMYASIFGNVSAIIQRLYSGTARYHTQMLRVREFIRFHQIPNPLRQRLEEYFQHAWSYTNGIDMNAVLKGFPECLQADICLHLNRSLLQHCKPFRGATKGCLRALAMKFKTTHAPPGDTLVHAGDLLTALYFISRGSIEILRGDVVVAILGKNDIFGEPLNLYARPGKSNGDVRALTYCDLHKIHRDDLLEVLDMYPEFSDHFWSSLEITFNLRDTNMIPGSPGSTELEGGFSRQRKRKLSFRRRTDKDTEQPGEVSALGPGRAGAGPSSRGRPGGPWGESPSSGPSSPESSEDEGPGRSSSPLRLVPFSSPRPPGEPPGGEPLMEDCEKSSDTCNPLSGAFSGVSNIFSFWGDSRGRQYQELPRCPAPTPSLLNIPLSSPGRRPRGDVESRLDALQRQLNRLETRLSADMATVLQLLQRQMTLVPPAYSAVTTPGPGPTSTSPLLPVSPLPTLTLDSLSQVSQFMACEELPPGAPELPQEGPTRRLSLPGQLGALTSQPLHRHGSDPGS
# T1 sequence (P28223 whole entry): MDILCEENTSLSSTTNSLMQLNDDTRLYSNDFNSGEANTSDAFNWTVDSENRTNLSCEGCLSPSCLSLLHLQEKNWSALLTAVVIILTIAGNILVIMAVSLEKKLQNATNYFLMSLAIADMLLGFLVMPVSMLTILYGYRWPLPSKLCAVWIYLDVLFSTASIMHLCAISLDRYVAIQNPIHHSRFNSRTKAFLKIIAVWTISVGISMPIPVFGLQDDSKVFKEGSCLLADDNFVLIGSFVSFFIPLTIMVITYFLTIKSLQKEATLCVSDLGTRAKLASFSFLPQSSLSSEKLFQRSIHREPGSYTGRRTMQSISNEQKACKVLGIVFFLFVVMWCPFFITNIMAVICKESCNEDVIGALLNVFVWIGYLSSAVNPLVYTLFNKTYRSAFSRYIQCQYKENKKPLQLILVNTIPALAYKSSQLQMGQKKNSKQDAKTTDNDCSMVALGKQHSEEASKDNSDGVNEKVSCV
# T2 sequence (P35462 whole entry): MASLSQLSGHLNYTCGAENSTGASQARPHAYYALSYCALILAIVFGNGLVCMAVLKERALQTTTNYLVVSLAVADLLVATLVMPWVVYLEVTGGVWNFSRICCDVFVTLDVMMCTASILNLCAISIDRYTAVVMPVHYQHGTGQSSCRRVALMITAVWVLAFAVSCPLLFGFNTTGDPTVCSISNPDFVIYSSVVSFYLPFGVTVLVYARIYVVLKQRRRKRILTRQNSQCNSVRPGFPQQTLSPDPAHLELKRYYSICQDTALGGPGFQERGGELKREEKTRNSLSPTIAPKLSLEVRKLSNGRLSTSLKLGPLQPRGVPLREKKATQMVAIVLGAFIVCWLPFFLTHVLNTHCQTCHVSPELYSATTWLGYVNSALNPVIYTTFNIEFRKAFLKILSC
Compound,5-HT2A-ag [%] [1] [%],Ki [2] [nM],Ki [3] [nM],M3 [%] affinity test result [4] [%],α1 [%] affinity test result [5] [%],Ki [5] [nM],hERG [%] (% block of hERG current) [6],Ki [6] [nM],"activity in words, dizocilpine-induced locomotor hyperactivity test (Male CD-1 mice)","MED (minimum effective dose), dizocilpine-induced locomotor hyperactivity (Male CD-1 mice; i.p., 30 minutes before the experiment) [mg/kg]"
"O=C1CCc2ccc(OCCCCN3CCN(c4cccc5c4ccn5Cc4cccc(Cl)c4)CC3)cc2N1 [Compound 67, 7-[4-[4-[1-[(3-Chlorophenyl)methyl]indol-4-yl]piperazin-1-yl]butoxy]-3,4-dihydro-1H-quinolin-2-one]",4,–,–,–,–,–,–,–,–,–
"O=C1CCc2ccc(OCCCN3CCN(c4cccc5c4ccn5S(=O)(=O)c4ccccc4)CC3)cc2N1 [Compound 23, 7-[3-[4-[1-(Benzensulphonyl)indol-4-yl]piperazin-1-yl]propoxy]-3,4-dihydro-1H-quinolin-2-one]",–,3.4,32,16,55,290,7,> 10000,–,–
"O=C1CCc2ccc(OCCCCN3CCN(c4cccc5c4ccn5S(=O)(=O)c4ccccc4)CC3)cc2N1 [Compound 24, 7-(4-(4-(1-(Phenylsulphonyl)-1H-indol-4-yl)piperazin-1-yl)butoxy)-3,4-dihydroquinolin-2(1H)-one]",–,0.81,1.3,37,92,22,9,> 10000,active,10
"O=C1CCc2ccc(OCCCCN3CCN(c4cccc5c4ccn5Cc4cccc(F)c4)CC3)cc2N1 [Compound 63, 7-[4-[4-[1-[(3-Fluorophenyl)methyl]indol-4-yl]piperazin-1-yl]butoxy]-3,4-dihydro-1H-quinolin-2-one]",6,–,–,–,86,–,–,–,–,–
"O=C1CCc2ccc(OCCCN3CCN(c4cccc5c4ccn5Cc4ccccc4)CC3)cc2N1 [Compound 4, 7-[3-[4-(1-Benzylindol-4-yl)piperazin-1-yl]propoxy]-3,4-dihydro-1H-quinolin-2-one]",2,–,–,–,68,–,27,–,–,–
"O=C1CCc2ccc(OCCCCN3CCN(c4cccc5c4ccn5Cc4ccccc4)CC3)cc2N1 [Compound 5, 7-(4-(4-(1-Benzyl-1H-indol-4-yl)piperazin-1-yl)butoxy)-3,4-dihydroquinolin-2(1H)-one]",8,–,–,–,88,–,30,–,–,–
"NC(=O)c1ccccc1OCCCN1CCN(c2cccc3c2ccn3S(=O)(=O)c2ccccc2)CC1 [Compound 72, 2-[3-[4-[1-(Benzenesulfonyl)indol-4-yl]piperazin-1-yl]propoxy]-benzamide]",2,–,3.2,23,–,–,–,–,–,–
